Data on six compounds can be found in patent US9447069B2, “ROR modulators and their uses” (INNOV17 LLC, priority 2012, dated 2016).

For one assay, the system named is IL-21. Description: TH17 cytokine inhibition measured by ELISA (IL-21). It is filed as cell-based. To be noted: 120 h; human TH17 cells, 5 days differentiation, ELISA of supernatants, 0.1% DMSO. How it is done: (§1) Peripheral blood mononuclear cells (PBMCs) were sourced from freshly prepared leukocyte enriched plasma (buffy coat) from healthy volunteers from which PBMCs were isolated by density gradient centrifugation using Ficoll-Paque™ PLUS (GE Healthcare). Naïve CD4+ T cells were isolated using the Naïve CD4+ T cell Isolation Kit II (Miltenyi Biotec) as per manufacturer's instructions. CD4+ T cells were plated at 5×10^4 cells/well in 96 well plates pre-coated with immobilized human (h)-αCD3 antibody (eBioscience) then differentiated to TH17 cells using h-αCD28, h-αIFN-γ, h-αIL-4, h-IL-6, h-IL-23, h-IL-1β, h-TGF-β1 (eBioscience) and maintained in a cell culture incubator at 37° C. with 5% CO2 in TexMACS Medium (Miltenyi Biotec) supplemented with 1% Penicillin/Streptomycin (Lonza) over 5 days.
(§2) Human CD4+ T cells were differentiated to TH17 cells as described in the presence or absence of various concentrations of compounds in a final concentration of 0.1% DMSO in TexMACS medium. Supernatants were collected and stored at −20° C. until they were to be assayed for IL-17A, IL-17F, IL-17AF, IL-21 and/or IL-22 levels as determined by Ready-Set-Go ELISA kits (eBioscience) as per manufacturer's instructions. Endpoint absorbance was read at 450 nm and 570 nm according to manufacturer's instructions (eBioscience) using a microplate reader (Perkin Elmer). The percentage of cytokine inhibition was calculated with reference to DMSO treated cells and the IC50s were determined by GraphPad Prism software and presented in the table below.
(In general: In an ELISA, binding on a coated surface is turned into a signal by an enzyme label.)

The next assay relates to IL-22. The assay can be described thus: TH17 cytokine inhibition measured by ELISA (IL-22). The assay is classed as cell-based. To be noted: 120 h; human TH17 cells, 5 days differentiation, ELISA of supernatants, 0.1% DMSO. Here is the method: as §1, §2
The test system of another assay is IL-17AF. Description: TH17 cytokine inhibition measured by ELISA (IL-17AF). It is filed as cell-based. To be noted: 120 h; human TH17 cells, 5 days differentiation, ELISA of supernatants, 0.1% DMSO. How it is done:
as §1, §2

Another assay addresses T1, RORα LBD (Homo sapiens, UniProt P35398).
T1 construct: purified GST-tagged (i) RORγ LBD or (ii) RORα LBD; purchased Life Technologies
T1 sequence (P35398 272-510 limits assumed): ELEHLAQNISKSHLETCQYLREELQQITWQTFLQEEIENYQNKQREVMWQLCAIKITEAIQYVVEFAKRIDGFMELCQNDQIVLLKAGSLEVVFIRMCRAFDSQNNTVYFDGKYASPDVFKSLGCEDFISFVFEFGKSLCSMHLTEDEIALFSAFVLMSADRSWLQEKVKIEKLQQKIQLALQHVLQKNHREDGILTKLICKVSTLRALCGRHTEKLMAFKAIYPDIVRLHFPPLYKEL
The assay can be described thus: TR-FRET D22 co-activator displacement from RORα LBD. The assay is classed as biochemical. An excerpt:
The Time-Resolved Fluorescence Resonance Energy Transfer (TR-FRET) assay kit (Life Technologies) was used to measure compound efficacy to disrupt or enhance ligand-mediated interaction of the co-activator and co-repressor peptides with the purified GST-tagged (i) RORγ LBD or (ii) RORα LBD. The RORγ LBD and RORα LBD each have a basal level of interaction with the co-activator D22 or co-repressor NCoR1-D2 in the absence of ligand, thus it is possible to identify compounds that inhibit or induce RORγ and/or RORα co-activator/co-repressor interactions, thus determining RORα, RORγ, or RORα/RORγ compound selectivity. The assay was performed as per manufacturer's instructions and TR-FRET was assessed 2 and 20 hours post-assay initiation. Compounds were identified to (i) have no impact on either co-activator displacement or […] from the assessed LBD (ii) promote co-activator displacement from the assessed LBD (iii) promote co-repressor recruitment to the assessed LBD or (iv) concurrently promote co-activator displacement from the assessed LBD and co-repressor recruitment to the assessed LBD.

The subject of a further assay is IL-17A. Description: Real-Time qRT-PCR gene expression in TH17 cells (IL-17A). Also on record: key: A: No change in gene expression observed relative to DMSO treated Th17 cells; B: Decreased gene expression observed relative to DMSO treated Th17 cells; C: Increased gene expression observed relative to DMSO treated Th17 cells. It is filed as cell-based, human. To be noted: normalized to six reference genes. How it is done: as §1
(§3) RNA was isolated from TH17 cells and cDNA was synthesized using the Verso cDNA kit (Thermo Scientific) as per manufacturer's instructions. IL-17A, IL-17F, IL-21, IL-22, G-CSF, IL-23R and FOXP3 gene expression were determined for compound treated and untreated TH17 cell samples using Solaris qPCR Gene expression assays (Thermo Scientific) with an iCycler iQ Real-Time PCR Detection System (Bio-Rad). Individual gene expression was normalized to a panel of six reference genes (ACTB, TBP, HPRT1, PGK1, TFRC and PPIA) (Thermo Scientific) and analyzed by REST 2009 (Qiagen) in accordance to MIQE guidelines (Bustin et al. (2009) Clin. Chem, 55:611-622). The effects of compounds on TH17 cytokine gene expression are presented as fold change in mRNA levels of compound treated TH17 cells relative to DMSO treated cells in the table below.
For orientation: Quantitative PCR measures a nucleic acid by following its amplification.

The test system of a further assay is IL-23R. Description: Real-Time qRT-PCR gene expression in TH17 cells (IL-23R). It is filed as cell-based, human. Particulars: normalized to six reference genes. Also on record: key: A: No change in gene expression observed relative to DMSO treated Th17 cells; B: Decreased gene expression observed relative to DMSO treated Th17 cells; C: Increased gene expression observed relative to DMSO treated Th17 cells. Here is the method: as §1, §3

[1] abbreviates: TR-FRET assessed 2 hr post-assay initiation, read-out: RORα EC50 D22 co-activator displacement, 2 hr.
Where [2] appears, read: TR-FRET assessed 20 hr post-assay initiation, read-out: RORα EC50 D22 co-activator displacement, 20 hr.

Read-outs that look alike come from different tables or passages of the source. A value given as a limit tells only on which side of the number the result lay.

Broadly, the IC50 is the concentration that inhibits the measured activity by half. By EC50 is commonly meant the midpoint of the concentration-response curve.

Take `Cc1n[nH]c(-c2ccc3c(c2)CCCN3Cc2ccc(C(O)(C(F)(F)F)C(F)(F)F)cc2)n1` [Example 3, 1,1,1,3,3,3-hexafluoro-2-(4-((6-(3-methyl-1H-1,2,4-triazol-5-yl)-3,4-dihydroquinolin-1(2H)-yl)methyl)phenyl)propan-2-ol]: the IC50 with IL-21, with IL-22 and in the assay with IL-17AF was below 10 µM in each case. Further, the EC50 on RORα LBD (setting [1]) and at RORα LBD (setting [2]) was above 30 µM each time. Further, the “Fold change in mRNA levels of compound treated TH17 cells relative to DMSO treated cells, IL-17A” value in the assay on IL-17A is listed as “B”. Besides, in the assay with IL-23R, the “Fold change in mRNA levels of compound treated TH17 cells relative to DMSO treated cells, IL-23R” value is “A”.

For `Cc1cc(-c2ccc3c(c2)CCC(=O)N3Cc2ccc(C(O)(C(F)(F)F)C(F)(F)F)cc2)[nH]n1` [Example 4, 1-(4-(1,1,1,3,3,3-hexafluoro-2-hydroxypropan-2-yl)benzyl)-6-(3-methyl-1H-pyrazol-5-yl)-3,4-dihydroquinolin-2(1H)-one], in the assay with IL-22, the IC50 was below 10 µM. Besides, the EC50 at RORα LBD (setting [1]) and on RORα LBD (setting [2]) was above 30 µM each time. Moreover, the “Fold change in mRNA levels of compound treated TH17 cells relative to DMSO treated cells, IL-17A” value in the assay on IL-17A is listed as “B”. The “Fold change in mRNA levels of compound treated TH17 cells relative to DMSO treated cells, IL-23R” value with IL-23R is “A”.

For `Cc1n[nH]c(-c2ccc3c(c2)CCC(=O)N3Cc2ccc(C(O)(C(F)(F)F)C(F)(F)F)cc2)n1` [Example 6, 1-(4-(1,1,1,3,3,3-hexafluoro-2-hydroxypropan-2-yl)benzyl)-6-(3-methyl-1H-1,2,4-triazol-5-yl)-3,4-dihydroquinolin-2(1H)-one], the IC50 in the assay on IL-22 is below 10 µM. Besides, the EC50 at RORα LBD (setting [1]) and at RORα LBD (setting [2]) was below 30 µM throughout. Moreover, the “Fold change in mRNA levels of compound treated TH17 cells relative to DMSO treated cells, IL-17A” value in the assay on IL-17A is on record as “B”. The “Fold change in mRNA levels of compound treated TH17 cells relative to DMSO treated cells, IL-23R” value with IL-23R is recorded as “C”.

With `O=C1CCc2cc(-c3cn[nH]c3)ccc2N1Cc1ccc(C(O)(C(F)(F)F)C(F)(F)F)cc1` [Example 5, 1-(4-(1,1,1,3,3,3-hexafluoro-2-hydroxypropan-2-yl)benzyl)-6-(1H-pyrazol-4-yl)-3,4-dihydroquinolin-2(1H)-one], the IC50 in the assay with IL-21, in the assay with IL-22 and with IL-17AF was below 10 µM throughout. The EC50 at RORα LBD (setting [1]) and at RORα LBD (setting [2]) was above 30 µM throughout. Besides, the “Fold change in mRNA levels of compound treated TH17 cells relative to DMSO treated cells, IL-17A” value in the assay with IL-17A is given as “A”. The “Fold change in mRNA levels of compound treated TH17 cells relative to DMSO treated cells, IL-23R” value in the assay on IL-23R is listed as “A”.

Take `OC(c1ccc(CN2CCCc3cc(-c4cn[nH]c4)ccc32)cc1)(C(F)(F)F)C(F)(F)F` [Example 2, 2-(4-((6-(1H-pyrazol-4-yl)-3,4-dihydroquinolin-1(2H)-yl)methyl)phenyl)-1,1,1,3,3,3-hexafluoropropan-2-ol]: the IC50 in the assay with IL-21, in the assay with IL-22 and with IL-17AF was below 10 µM in each case. Further, the EC50 at RORα LBD (setting [1]) and at RORα LBD (setting [2]) was below 30 µM in each case. The “Fold change in mRNA levels of compound treated TH17 cells relative to DMSO treated cells, IL-17A” value in the assay with IL-17A is recorded as “B”. For the same compound, the “Fold change in mRNA levels of compound treated TH17 cells relative to DMSO treated cells, IL-23R” value in the assay with IL-23R is reported as “A”.

For `Cc1cc(-c2ccc3c(c2)CCCN3Cc2ccc(C(O)(C(F)(F)F)C(F)(F)F)cc2)[nH]n1` [Example 1, 1,1,1,3,3,3-hexafluoro-2-(4-((6-(3-methyl-1H-pyrazol-5-yl)-3,4-dihydroquinolin-1(2H)-yl)methyl)phenyl)propan-2-ol], the IC50 in the assay with IL-21, in the assay on IL-22 and in the assay on IL-17AF was below 10 µM each time. Further, the EC50 on RORα LBD (setting [1]) is above 30 µM; at RORα LBD (setting [2]) it was below 30 µM. The “Fold change in mRNA levels of compound treated TH17 cells relative to DMSO treated cells, IL-17A” value with IL-17A is reported as “A”. For the same compound, the “Fold change in mRNA levels of compound treated TH17 cells relative to DMSO treated cells, IL-23R” value with IL-23R is “A”.
